{"source": "patent US8507411B2", "about": "“Neoglycorandomization and digitoxin analogs” (priority 2004, dated 2013)", "key": {"NCI-H460": {"test_system": "NCI-H460", "test": "High-throughput calcein AM cytotoxicity assay, NCI-H460", "assay_type": "cell-based, human", "details": "read-out: IC50, NCI-H460", "description": "Standard errors are depicted with error bars."}, "Na+/K+-ATPase": {"biological_target": "T1, Na+/K+-ATPase (Homo sapiens, UniProt P05023)", "T1 construct": "endogenous in cells; host or cells: HEK-293", "test": "Non-radioactive rubidium ion uptake assay, HEK-293 cells", "assay_type": "cell-based", "details": "read-out: Na+/K+-ATPase Inhibition IC50", "experimental": "Na/K-ATPase Assays. Inhibition of Na^+/K^+-ATPase on HEK-293 cells and CHO-K1 cells by the library hits was determined by Aurora Biomed, Inc. using a high-throughput non-radioactive rubidium ion uptake assay. Experiments were conducted in duplicate using three different concentrations. Within each experiment, percent inhibition values at the three concentrations were expressed as the percent reduction of the maximum absorption signal observed for a 0 nM control. IC50 values were determined using the following formula: IC50=[(50−low %)/(high %−low %)]×(high conc.−low conc.)+low conc.\nTo assess how these structural modifications impact the ability of library members to inhibit Na^+/K^+-ATPases, a fundamental activity of cardiac glycosides (Paula, S., et al., (2005) Biochemistry 44, 498-510), library hits 5β, 15β, 23β, 27β, 33β, 40β, and digitoxin (1) were submitted to a non-radioactive rubidium uptake assay to gauge Na^+/K^+-ATPase inhibition in both […] human embryonic kidney cells and CHO-K1 hamster ovary cells (Gill, S. et al., (2004) ASSAY and Drug Development Technologies 2, 535-542)."}, "NCI/ADR-RES": {"test_system": "NCI/ADR-RES", "test": "Cell titer-glo cytotoxicity assay, NCI/ADR-RES", "assay_type": "cell-based, human", "description": "FIG. 7 is a graphical summary of the results of the IC50 data from cytotoxicity assays. […] In the assay, live cells are quantified by measuring the luminescent signal resulting from the reaction between cellular ATP and luciferin to form oxyluciferin. The IC50 value for each compound represents at least four replicates of dose-response experiments conducted over six concentrations at two-fold dilutions.\nThe anticancer activities of ten panel analogues (3a-c,e,f and 4a-c,e,f) and digitoxin (1) were assessed using a high-throughput cytotoxicity assay on four human cancer cell lines, (FIG. 7) representing lung, colorectal, and ovarian carcinomas, as well as NCI/ADR-RES, a drug-resistant ovarian carcinoma line (For years, NCI/ADR-RES cells have been misidentified as drug-resistant MCF-7 breast adenocarcinoma cells, but recently this line has been shown definitively to be a drug-resistant line derived from OVCAR-8 ovarian adenocarcinoma cells. Liscovitch, M. et al., Cancer Lett. (2007) 245, 350-352.\nAll cell lines were maintained as previously reported (Langenhan, J. M. et al., Proc. Natl. Acad. Sci. (2005) 102, 12305-12310.) Cells were harvested by trypsinization using 0.25% trypsin and 0.1% EDTA and then counted in a Cellometer Auto T4 cell counter (Nexcelom, inc), before dilution for assay plating. Cell plating, compound handling and assay set up were performed as previously reported^1 except for the cells were plated in 50 μL volumes in 384 well clear bottom, tissue culture plates (Corning-Costar, Inc). Compounds were added from the 384-well compound stock plates at a 1:100 dilution using a Biomek FX liquid handler equipped with a 384 channel head (Beckman Coulter, Inc.). Cell titer-glo reagent (15 μL) (Promega Corporation, Inc.) was added and incubated for 10 min at room temperature with gentle agitation to lyse the cells. Each plate was read for luminescence. […] IC50 values were determined using XLFit 4.0 as previously reported (see Table 7)."}}, "note": "Like-named read-outs stand apart in the source and are kept apart here.", "data": [{"compound": "CON([C@H]1CC[C@@]2(C)[C@H](CC[C@@H]3[C@@H]2CC[C@]2(C)[C@@H](C4=CC(=O)OC4)CC[C@]32O)C1)[C@@H]1O[C@H](CO)[C@@H](O)[C@H](O)[C@@H]1O", "note": "[27β, D-mannoside]", "values": [{"measurement": "IC50", "setting": "NCI-H460; NCI-H460 cells", "result": 0.7, "unit": "µM"}, {"measurement": "IC50", "setting": "Na+/K+-ATPase", "result": "> 200", "unit": "µM"}]}, {"compound": "C[C@H]1O[C@@H](O[C@H]2[C@@H](O)C[C@H](O[C@H]3[C@@H](O)C[C@H](O[C@H]4CC[C@@]5(C)[C@H](CC[C@@H]6[C@@H]5CC[C@]5(C)[C@@H](C7=CC(=O)OC7)CC[C@]65O)C4)O[C@@H]3C)O[C@@H]2C)C[C@H](O)[C@@H]1O", "note": "[digitoxin]", "values": [{"measurement": "IC50", "setting": "NCI/ADR-RES; Homo sapiens", "result": 0.069, "unit": "µM"}, {"measurement": "IC50", "setting": "NCI-H460; Homo sapiens, NCI-H460, NCI-H460 cells", "result": 0.28, "unit": "µM"}, {"measurement": "IC50", "setting": "Na+/K+-ATPase", "result": "75.4 ± 0.5", "unit": "µM"}]}, {"compound": "CON([C@H]1CC[C@@]2(C)[C@H](CC[C@@H]3[C@@H]2CC[C@]2(C)[C@@H](C4=CC(=O)OC4)CC[C@]32O)C1)[C@H]1OC[C@H](O)[C@@H](O)[C@@H]1O", "note": "[23β, L-xyloside]", "values": [{"measurement": "IC50", "setting": "NCI/ADR-RES; Cell titer-glo, read-out: IC50", "result": 0.072, "unit": "µM"}, {"measurement": "IC50", "setting": "NCI-H460; NCI-H460 cells", "result": 0.08, "unit": "µM"}, {"measurement": "IC50", "setting": "Na+/K+-ATPase", "result": "> 300", "unit": "µM"}]}, {"compound": "CON([C@H]1CC[C@@]2(C)[C@H](CC[C@@H]3[C@@H]2CC[C@]2(C)[C@@H](C4=CC(=O)OC4)CC[C@]32O)C1)[C@H]1OC[C@H](O)[C@H](O)[C@@H]1O", "note": "[5β, L-riboside]", "values": [{"measurement": "IC50", "setting": "NCI/ADR-RES; Cell titer-glo, read-out: IC50", "result": 0.045, "unit": "µM"}, {"measurement": "IC50", "setting": "NCI-H460; NCI-H460 cells", "result": 0.053, "unit": "µM"}, {"measurement": "IC50", "setting": "Na+/K+-ATPase", "result": "> 300", "unit": "µM"}]}]}
